According to patent US10564164B2, “Fluorescent probe, singlet oxygen detection agent, and singlet oxygen detection method” (Osaka University, priority 2014, dated 2020):

Assays:
HeLa cells = assay: Selectivity of photosensitizer: intracellular singlet oxygen detection with Si-DMA; type: cell-based; conditions: 25 nM Si-DMA, 640 nm, 0.6 W/cm2
Experimental: Subsequently, a quick protocol provided by Molecular Probe® for introducing CellROX Green was followed. Using diluted Si-DMA and Si-Me, incubation was performed for 30 minutes to two hours by an experiment. To introduce a photosensitizer, 150 μg/mL of 5-aminolevulinic acid (5-ALA) or 10 LM TMPyP4 were incubated for four hours and 24 hours, respectively. As a result, as previously reported, the conversion of 5-ALA into protoporphyrin IX (PpIX) in the mitochondria was confirmed by the fluorescence luminescence of PpIX.
A KillerRed vector was expressed in accordance with a general Lipofectamine® 2000 (Invitrogen) protocol. More specifically, 2×10^5 Hela cells were subcultured in a 35-mm glass bottom dish. The cells reached about 50% confluent in the next day.
Subsequently, a mixed solution of Lipofectamine reagent and DNA vector was obtained by mixing 6 μL Lipofectamine® 2000 with 7 μL pKillerRed-dMitovector ([…], Evrogen, catalog No. FP964) in an Opti-MEM solution (Gibco). Thereafter, the resulting solution was incubated for 20 minutes at room temperature. 300 μL of the mixed solution was added to a growth medium, and incubated for 24 hours. The expression of KillerRed was confirmed by monitoring KillerRed fluorescence using a wide-view microscope. […]
Further, on the night before the treatment, 0.2×10^6 HeLa cells were seeded on a 35-mm dish, and pKillerRed-dMito vector (Evrogen) was introduced using Lipofectaimine®2000 (Invitrogen®), followed by 24-hour incubation as described above, thereby preparing HeLa cells containing […]. […] Light irradiation was performed for 30 seconds simultaneously at 0.5 W/cm^2 and 0.6 W/cm^2 using a 640-/532-nm laser (Coherent) and a wide-view fluorescence microscope system mounted in an IX81 inverted microscope (Olympus Corporation). […]
Further, in this Experiment Example, 60-second light irradiation was performed using three kinds of photosensitizers, and an average number of pseudo colors appeared in the photo and an increase thereof were measured. […]

[1] = Fluorescence change after singlet oxygen generated chemically by NaOCl and H2O2; type: physicochemical; conditions: for fluorescence depending on concentration of singlet oxygen: NaClO and H2O2, DMSO:methanol:tris buffer 1:49:50, 5 μM
Experimental: Further, singlet oxygen was introduced into Si-DMA using a chemical catalyst. More specifically, singlet oxygen was introduced using 10 mM NaOCl and 10 mM H2O2. In this case as well, a spectral change similar to that in FIG. 1 was observed. […] The black arrow in FIG. 4a) and the red arrow in FIG. 4b) respectively show a loss of the anthracene structure, and an increase in the fluorescence of Si-DMA. The fluorescence increased about 10 times by 10-minute incubation using NaOCl and H2O2. By introducing a greater amount of singlet oxygen, more Si-DMA is expected to change into Si-DMEP.
The measurement was performed by generating singlet oxygen using NaClO and H2O2 in a solution containing DMSO:methanol:tris buffer agent=1:49:50 (Si-DMA concentration=5 μM).

Cc1c2ccccc2c(C)c2cc(C3=C4C=CC(=[N+](C)C)C=C4[Si](C)(C)c4cc(N(C)C)ccc43)ccc12 [Si-DMA]
time to increase in fluorescence in the vicinity of the perinuclear region (HeLa cells; HeLa cells with PpIX (150 μg/mL 5-aminolevulinic acid, 4 h)): ≤ 10 s | color rendering (HeLa cells; HeLa cells with PpIX as photosensitizer): clear color rendering was accomplished | increase of fluorescence ([1]; 10 mM NaOCl and 10 mM H2O2, 10-minute incubation): about 10 times | fluorescence depending on concentration of singlet oxygen ([1]; aggregate): increase in fluorescence in proportion to the concentration of singlet oxygen | fluorescence depending on concentration of singlet oxygen ([1]; monomer): increase in fluorescence in proportion to the concentration of singlet oxygen
